Laboratory results reported in PubChem BioAssay AID330 (DTP/NCI, 2004).
Where “and” joins values, the source holds several entries; their conditions need not be identical. Identical values can stand only once. Inconclusive results and toxic doses are left out. The calls were made as follows: active = survival T/C of 150% or more; inactive = T/C below 125% in these data.

Tested on: P388 leukemia ip, CD2F1 mice, survival T/C
Experiment: NCI In Vivo Anticancer Drug Screen. Data for tumor model P388 Leukemia (intraperitoneal) in CD2F1 (CDF1) mice
Settings: endpoint: median survival time, higher = longer survival
Method in brief: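 Mice carrying the transplanted tumor received test compound or vehicle. Survival was recorded in each group, and the value is the treated-group measurement divided by that of the vehicle-treated control group.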

[1] = dose: 60.0 mg/kg/injection, schedule: Q01DX005 (ip), vehicle: Klucel (hydroxypropylcellulose) (HPC)
[2] = dose: 120.0 mg/kg/injection, schedule: Q01DX005 (ip), vehicle: Klucel (hydroxypropylcellulose) (HPC)
[3] = dose: 240.0 mg/kg/injection, schedule: Q01DX005 (ip), vehicle: Klucel (hydroxypropylcellulose) (HPC)
[4] = dose: 50.0 mg/kg/injection, schedule: Q01DX009 (ip), vehicle: Klucel (hydroxypropylcellulose) (HPC)
[5] = dose: 100.0 mg/kg/injection, schedule: Q01DX009 (ip), vehicle: Klucel (hydroxypropylcellulose) (HPC)
[6] = dose: 200.0 mg/kg/injection, schedule: Q01DX009 (ip), vehicle: Klucel (hydroxypropylcellulose) (HPC)
[7] = dose: 60.0 mg/kg/injection, schedule: Q01DX005 (ip), vehicle: saline with Tween-80
[8] = dose: 120.0 mg/kg/injection, schedule: Q01DX005 (ip), vehicle: saline with Tween-80
[9] = dose: 240.0 mg/kg/injection, schedule: Q01DX005 (ip), vehicle: saline with Tween-80
[10] = dose: 25.0 mg/kg/injection, schedule: Q01DX009 (ip), vehicle: saline with Tween-80
[11] = dose: 50.0 mg/kg/injection, schedule: Q01DX009 (ip), vehicle: saline with Tween-80
[12] = dose: 100.0 mg/kg/injection, schedule: Q01DX009 (ip), vehicle: saline with Tween-80
[13] = dose: 200.0 mg/kg/injection, schedule: Q01DX009 (ip), vehicle: saline with Tween-80
[14] = dose: 100.0 mg/kg/injection, schedule: Q04DX003 (ip), vehicle: saline with Tween-80
[15] = dose: 200.0 mg/kg/injection, schedule: Q04DX003 (ip), vehicle: saline with Tween-80
[16] = dose: 400.0 mg/kg/injection, schedule: Q04DX003 (ip), vehicle: saline with Tween-80
[17] = dose: 50.0 mg/kg/injection, schedule: Q01DX005 (ip), vehicle: Klucel (hydroxypropylcellulose) (HPC)
[18] = dose: 100.0 mg/kg/injection, schedule: Q01DX005 (ip), vehicle: Klucel (hydroxypropylcellulose) (HPC)
[19] = dose: 200.0 mg/kg/injection, schedule: Q01DX005 (ip), vehicle: Klucel (hydroxypropylcellulose) (HPC)
[20] = dose: 50.0 mg/kg/injection, schedule: Q01DX005 (ip), vehicle: saline
[21] = dose: 100.0 mg/kg/injection, schedule: Q01DX005 (ip), vehicle: saline
[22] = dose: 200.0 mg/kg/injection, schedule: Q01DX005 (ip), vehicle: saline

Measured: T/C

CC1CCC2(OC1)OC1CC3C4CC=C5CC(OC6OC(CO)C(OC7OC(C)C(OC8OC(C)C(O)C(O)C8O)C(O)C7O)C(O)C6OC6OC(C)C(O)C(O)C6O)CCC5(C)C4CCC3(C)C1C2C (stereo not drawn)
inactive: dose: 0.62 mg/kg/injection, schedule: Q01DX009 (ip), vehicle: saline 106 % of control | dose: 1.25 mg/kg/injection, schedule: Q01DX009 (ip), vehicle: saline 91 % of control | dose: 2.5 mg/kg/injection, schedule: Q01DX009 (ip), vehicle: saline 90 % of control

O=C1OC(CO)C(O)C2OC(=O)c3c(c(O)c(O)c(O)c3-c3c(O)c(O)c(O)c4c3C(=O)OC2C4O)-c2c1cc(O)c(O)c2O (stereo not drawn)
inactive: dose: 1.56 mg/kg/injection, schedule: Q01DX009 (ip), vehicle: saline 105 % of control | dose: 3.12 mg/kg/injection, schedule: Q01DX009 (ip), vehicle: saline 105 % of control | dose: 6.25 mg/kg/injection, schedule: Q01DX009 (ip), vehicle: saline 90 % of control

CC(=O)OC1CSc2ccccc2N(C(C)=O)C1 (stereo not drawn)
inactive: [1] 104 % of control | [2] 99 % of control | [3] 107 % of control

CC(Oc1ccc(Oc2ccc(Cl)cc2)cc1)C(=O)O (stereo not drawn)
inactive: [4] 102 % of control | [5] 90 % of control | [6] 89 % of control

CSCC[C@]1(C)C(=O)N(C)[C@H](C(C)(C)C)N1C(=O)c1ccccc1
inactive: [7] 99 % of control | [8] 100 % of control | [9] 93 % of control

[Cl][Cu][Cl].[NH-]C1CCCC2CCC[N-]C12 (stereo not drawn)
inactive: dose: 12.5 mg/kg/injection, schedule: Q04DX002 (ip), vehicle: saline with Tween-80 106 % of control

O=C1C(=O)c2ccccc2C(O)=C1CCCc1ccc(C2CCCCCC2)cc1
inactive: [10] 86 % of control | [11] 88 % of control | [12] 89 % of control | [13] 95 % of control

COC(=O)c1cc(-c2ccccn2)[nH]c(=O)c1C#N
inactive: dose: 60.0 mg/kg/injection, schedule: Q01DX005 (ip), vehicle: saline 104 % of control | dose: 120.0 mg/kg/injection, schedule: Q01DX005 (ip), vehicle: saline 100 % of control | dose: 240.0 mg/kg/injection, schedule: Q01DX005 (ip), vehicle: saline 97 % of control

CC1CC[N-]C(N)N1.CC1CC[N-]C(N)N1.[Cl][Pd][Cl] (stereo not drawn)
inactive: [1] 97 % of control | [2] 97 % of control | [3] 90 % of control

CC1(C)OC(COCCO)C(COCCO)O1 (stereo not drawn)
inactive: dose: 100.0 mg/kg/injection, schedule: Q01DX001 (ip), vehicle: saline 92 % of control | dose: 200.0 mg/kg/injection, schedule: Q01DX001 (ip), vehicle: saline 91 % of control | dose: 400.0 mg/kg/injection, schedule: Q01DX001 (ip), vehicle: saline 92 % of control

Cc1ccc(S(=O)(=O)OC2C(COCC(=O)O)OC3OC(C)(C)OC32)cc1 (stereo not drawn)
inactive: [14] 95 % of control | [15] 95 % of control | [16] 90 % of control

NC(=O)/C(N=Nc1ccccc1I)=N\Nc1ccccc1I
inactive: [17] 97 % of control | [18] 98 % of control | [19] 97 % of control

C=C1C(=O)C23C(OC(=O)CCCCCCCCCCC)C1CCC2C12COC3(O)C(O)C1C(C)(C)CCC2O (stereo not drawn)
inactive: dose: 3.75 mg/kg/injection, schedule: Q01DX009 (ip), vehicle: saline with Tween-80 98 % of control | dose: 7.5 mg/kg/injection, schedule: Q01DX009 (ip), vehicle: saline with Tween-80 103 % of control | dose: 15.0 mg/kg/injection, schedule: Q01DX009 (ip), vehicle: saline with Tween-80 95 % of control | dose: 30.0 mg/kg/injection, schedule: Q01DX009 (ip), vehicle: saline with Tween-80 100 % of control

O=c1[nH]c(=O)n(C2CC(O)C(CO)O2)cc1O (stereo not drawn)
inactive: dose: 50.0 mg/kg/injection, schedule: Q04DX003 (ip), vehicle: saline with Tween-80 100 % of control | [14] 101 % of control | [15] 99 % of control | [16] 101 % of control

Cc1nc(N)[nH]c(=O)c1N
inactive: dose: 12.5 mg/kg/injection, schedule: Q01DX005 (ip), vehicle: Klucel (hydroxypropylcellulose) (HPC) 99 % of control | dose: 25.0 mg/kg/injection, schedule: Q01DX005 (ip), vehicle: Klucel (hydroxypropylcellulose) (HPC) 108 % of control | [17] 103 % of control and 98 % of control | [18] 110 % of control

OCCN1CCN(CCCN2c3cc(Cl)ccc3Sc3sccc32)CC1
inactive: [17] 92 % of control | [20] 100 % of control | [18] 90 % of control | [21] 106 % of control

O=C(Nc1ccccc1C1=NCCN1)Nc1ccccc1C1=NCCN1
inactive: [20] 100 % of control | [21] 106 % of control

O=C1/C(=C/c2cccs2)CCc2ccccc21
inactive: [1] 100 % of control | [2] 107 % of control | [3] 98 % of control

C/C=C(\C)C(=O)OC1CCC2(C)C3CCC4C5(O)CC(O)C6(O)C(CN7CC(C)CCC7C6(C)O)C5(O)CC42OC13O (stereo not drawn)
inactive: dose: 1.56 mg/kg/injection, schedule: Q01DX005 (ip), vehicle: Klucel (hydroxypropylcellulose) (HPC) 98 % of control | dose: 1.56 mg/kg/injection, schedule: Q01DX005 (ip), vehicle: saline 96 % of control | dose: 3.12 mg/kg/injection, schedule: Q01DX005 (ip), vehicle: Klucel (hydroxypropylcellulose) (HPC) 106 % of control | dose: 3.12 mg/kg/injection, schedule: Q01DX005 (ip), vehicle: saline 96 % of control | dose: 6.25 mg/kg/injection, schedule: Q01DX005 (ip), vehicle: Klucel (hydroxypropylcellulose) (HPC) 109 % of control and 91 % of control | dose: 6.25 mg/kg/injection, schedule: Q01DX005 (ip), vehicle: saline 96 % of control

CCCCCN(CCCCC)CC(=O)c1ccc2cc(Br)c3ccccc3c2c1
inactive: dose: 50.0 mg/kg/injection, schedule: Q01DX005 (ip), vehicle: saline with Tween-80 104 % of control | dose: 100.0 mg/kg/injection, schedule: Q01DX005 (ip), vehicle: saline with Tween-80 101 % of control | dose: 200.0 mg/kg/injection, schedule: Q01DX005 (ip), vehicle: saline with Tween-80 108 % of control

CCC1=C(C)CC(CC(=O)OC)C1=O (stereo not drawn)
inactive: [20] 95 % of control | [21] 97 % of control | [22] 98 % of control

CC(C)=CCc1c2c(c3occ(-c4ccc(O)cc4)c(=O)c3c1O)C=CC(C)(C)O2
inactive: dose: 25.0 mg/kg/injection, schedule: Q01DX009 (ip), vehicle: Klucel (hydroxypropylcellulose) (HPC) 90 % of control | [4] 90 % of control | [5] 88 % of control | [6] 88 % of control

COc1cc(OC)c(Br)cc1C
inactive: dose: 12.5 mg/kg/injection, schedule: Q01DX009 (ip), vehicle: saline with Tween-80 100 % of control | [10] 91 % of control | [11] 91 % of control | [14] 104 % of control | [15] 104 % of control | [16] 104 % of control

CN(C)C(=O)C1SCCCS1
inactive: dose: 100.0 mg/kg/injection, schedule: Q04DX002 (ip), vehicle: saline with Tween-80 107 % of control | dose: 200.0 mg/kg/injection, schedule: Q04DX002 (ip), vehicle: saline with Tween-80 108 % of control | dose: 400.0 mg/kg/injection, schedule: Q04DX002 (ip), vehicle: saline with Tween-80 108 % of control

CCOC(=O)C1=NN(c2ccccc2)C(C)(C(=O)OC)C1 (stereo not drawn)
inactive: [7] 98 % of control | [8] 98 % of control | [9] 95 % of control

CCOC(=O)N1CCN(CCCCCCOc2ccc(C3CCCCC3)cc2)CC1
inactive: [11] 106 % of control | [12] 118 % of control | [13] 123 % of control

O=C1OC(CO)C(O)C(O)C1O (stereo not drawn)
inactive: [20] 100 % of control | [21] 93 % of control | [22] 96 % of control

CC(=O)Oc1cc(C)cc2c1[C@@]1(C)CC[C@H]3[C@@H](CC[C@H]4C[C@@H](OC(C)=O)CC[C@@]43C)[C@@H]1C2
inactive: [17] 96 % of control | [18] 96 % of control | [19] 107 % of control
